Results taken from ChEMBL document CHEMBL5543086, “Discovery of novel NSAID hybrids as cPLA2/COX-2 dual inhibitors alleviating rheumatoid arthritis via inhibiting p38 MAPK pathway” (Eur J Med Chem, 2024).
Calls of active or inactive are those of the source. No cut-off for these calls is given here.

Key:
RAW264.7 [1] = assay: Cytotoxicity against LPS-induced mouse RAW264.7 cells assessed as reduction in cell viability at 30 uM pretreated for 1 hr followed by LPS addition and measured after 24 hrs by MTT assay; assay type: toxicity, cell-based; settings: raw264.7, 25 h
RAW264.7 [2] = assay: Antiinflammatory activity in LPS-induced mouse RAW264.7 cells assessed as inhibition of NO production pretreated for 1 hr followed by LPS stimulation and measured after 24 hrs by griess reagent based assay; assay type: functional, cell-based
Rattus norvegicus [3] = assay: Antiarthritic activity in Freund's complete adjuvant induced Lewis rat model of arthritis assessed as reduction in PGE2 level in serum at 20 mg/kg, po administered every 24 hrs for 28 days post immunization starting from day 8 post immunization by ELISA; assay type: functional, organism-based; settings: time 21.0 day
Rattus norvegicus [4] = assay: Antiarthritic activity in Freund's complete adjuvant induced Lewis rat model of arthritis assessed as reduction in TNFalpha level in serum at 20 mg/kg, po administered every 24 hrs for 28 days post immunization starting from day 8 post immunization by ELISA; assay type: functional, organism-based; settings: time 21.0 day
Rattus norvegicus [5] = assay: Antiarthritic activity in Freund's complete adjuvant induced Lewis rat model of arthritis assessed as reduction in IL-6 level in serum at 20 mg/kg, po administered every 24 hrs for 28 days post immunization starting from day 8 post immunization by ELISA; assay type: functional, organism-based; settings: time 21.0 day
Rattus norvegicus [6] = assay: (§1) Immunomodulatory activity in Freund's complete adjuvant induced Lewis rat model of arthritis assessed as reduction in IL-17 level in serum at 20 mg/kg, po administered every 24 hrs for 28 days post immunization starting from day 8 post immunization by ELISA; assay type: functional, organism-based; settings: time 21.0 day
Rattus norvegicus [7] = assay: (§2) Immunomodulatory activity in Freund's complete adjuvant induced Lewis rat model of arthritis assessed as increase in IL-10 level in serum at 20 mg/kg, po administered every 24 hrs for 28 days post immunization starting from day 8 post immunization by ELISA; assay type: functional, organism-based; settings: time 21.0 day
Rattus norvegicus [8] = assay: as §2, with “anti-IL-10 antibody expression” for “IL-10 level”, “knee joint slices” for “serum”, “immunohistochemistry analysis” for “ELISA”; assay type: functional, organism-based; settings: time 21.0 day
Rattus norvegicus [9] = assay: as §1, with “decrease” for “reduction”, “anti-IL-17 antibody expression” for “IL-17 level”, “knee joint slices” for “serum”, “immunohistochemistry analysis” for “ELISA”; assay type: functional, organism-based; settings: time 21.0 day
[10] = Toxicity in male Wistar rat assessed as gastrointestinal damage by measuring number of ulcers at 50 mg/kg administered by gavage and measured after 6 hrs (reference value: 0); assay type: organism-based; settings: in vivo, po
[11] = Toxicity in male Wistar rat assessed as gastrointestinal damage by measuring level-1 ulcers with <1 mm area at 50 mg/kg administered by gavage and measured after 6 hrs; assay type: organism-based; settings: in vivo, po
[12] = Toxicity in male Wistar rat assessed as gastrointestinal damage by measuring level-2 ulcers with 1 to 3 mm area at 50 mg/kg administered by gavage and measured after 6 hrs; assay type: organism-based; settings: in vivo, po
[13] = Toxicity in male Wistar rat assessed as gastrointestinal damage by measuring level-3 ulcers with >3 mm area at 50 mg/kg administered by gavage and measured after 6 hrs; assay type: organism-based; settings: in vivo, po
[14] = Toxicity in male Wistar rat assessed as gastrointestinal damage by measuring ulcer index at 50 mg/kg administered by gavage and measured after 6 hrs; assay type: organism-based; settings: in vivo, po

Row | SMILES | Activity (RAW264.7 [1]) | other results
1 | CCCCCCCCCCCCCCCCCC/C=C(/OC(=O)C(C)c1ccc(CC(C)C)cc1)C(F)(F)F (stereo not drawn) | Non-Toxic | 
2 | CCCCC/C=C\C/C=C\CCCCCC/C=C(/OC(=O)[C@@H](C)c1ccc2cc(OC)ccc2c1)C(F)(F)F | Non-Toxic | 
3 | CCCCC/C=C\C/C=C\C/C=C\C/C=C\CC/C=C(/OC(=O)C(C)c1ccc(CC(C)C)cc1)C(F)(F)F (stereo not drawn) | Non-Toxic | IC50 (RAW264.7 [2]): 4.74 µM
4 | C=CCCCCCCC/C=C(/OC(=O)[C@@H](C)c1ccc2cc(OC)ccc2c1)C(F)(F)F | Non-Toxic | 
5 | CCCCC/C=C\C/C=C\CCCCCC/C=C(/OC(=O)c1ccccc1OC(C)=O)C(F)(F)F | Non-Toxic | 
6 | CCCCCCCCCCCC/C=C(/OC(=O)c1ccccc1OC(C)=O)C(F)(F)F | Non-Toxic | 
7 | CCCCCCCCCCCCC/C=C(/OC(=O)C(C)c1ccc(CC(C)C)cc1)C(F)(F)F (stereo not drawn) | Non-Toxic | 
8 | CCCCCCCC/C=C(/OC(=O)C(C)c1ccc(-c2ccccc2)c(F)c1)C(F)(F)F (stereo not drawn) | Non-Toxic | 
9 | CCCCCCCC/C=C\CCCCCC/C=C(/OC(=O)[C@@H](C)c1ccc2cc(OC)ccc2c1)C(F)(F)F | Non-Toxic | 
10 | CCC/C=C(/OC(=O)C(C)c1ccc(CC(C)C)cc1)C(F)(F)F (stereo not drawn) | Non-Toxic | 
11 | CCCCC/C=C\C/C=C\C/C=C\C/C=C\CCCC(=O)C(F)(F)F [ARACHIDONYL TRIFLUOROMETHYLKETONE] | Non-Toxic | 
12 | CCCCC/C=C\C/C=C\C/C=C\C/C=C\CC/C=C(/OC(=O)Cc1c(C)n(C(=O)c2ccc(Cl)cc2)c2ccc(OC)cc12)C(F)(F)F | Non-Toxic | 
13 | CCCCCC/C=C(/OC(=O)C(C)c1ccc(CC(C)C)cc1)C(F)(F)F (stereo not drawn) | Non-Toxic | 
14 | CCCCCCCCCCCCCCCCCC/C=C(/OC(=O)C(C)c1ccc(C(=O)c2ccccc2)cc1)C(F)(F)F (stereo not drawn) | Non-Toxic | 
15 | CCCCCCCCCC/C=C(/OC(=O)[C@@H](C)c1ccc2cc(OC)ccc2c1)C(F)(F)F | Non-Toxic | 
16 | CCCCCCCC/C=C(/OC(=O)c1ccccc1OC(C)=O)C(F)(F)F | Non-Toxic | 
17 | CCCCC/C=C\C/C=C\C/C=C\C/C=C\CC/C=C(/OC(=O)[C@@H](C)c1ccc2cc(OC)ccc2c1)C(F)(F)F | Non-Toxic | IC50 (RAW264.7 [2]): 6.67 µM
18 | CCCCCCCC/C=C\CCCCCCCCCC/C=C(/OC(=O)c1ccccc1OC(C)=O)C(F)(F)F | Non-Toxic | 
19 | CCCCCCCCCCCCCCCC/C=C(/OC(=O)c1ccccc1OC(C)=O)C(F)(F)F | Non-Toxic | 
20 | CCCC/C=C(/OC(=O)C(C)c1ccc(CC(C)C)cc1)C(F)(F)F (stereo not drawn) | Non-Toxic | 
21 | CCCCC/C=C\C/C=C\C/C=C\C/C=C\CC/C=C(/OC(=O)c1ccccc1OC(C)=O)C(F)(F)F | Non-Toxic | 

Row | SMILES | Activity (RAW264.7 [1]) | other results
22 | CCCCCCCCCCCCCCC/C=C(/OC(=O)C(C)c1ccc(CC(C)C)cc1)C(F)(F)F (stereo not drawn) | Non-Toxic | 
23 | CCCCCCCC/C=C\CCCCCCCCCC/C=C(/OC(=O)C(C)c1ccc(CC(C)C)cc1)C(F)(F)F (stereo not drawn) | Non-Toxic | 
24 | CCCCCCCCCCCC/C=C(/OC(=O)[C@@H](C)c1ccc2cc(OC)ccc2c1)C(F)(F)F | Non-Toxic | 
25 | CCCCC/C=C\C/C=C\CCCCCC/C=C(/OC(=O)C(C)c1ccc(C(=O)c2ccccc2)cc1)C(F)(F)F (stereo not drawn) | Non-Toxic | 
26 | CCCCC/C=C\C/C=C\C/C=C\C/C=C\CC/C=C(/OC(=O)C(C)c1ccc(-c2ccccc2)c(F)c1)C(F)(F)F (stereo not drawn) | Non-Toxic | IC50 (RAW264.7 [2]): 7.08 µM
27 | CCCCC/C=C\C/C=C\CCCCCC/C=C(/OC(=O)C(C)c1ccc(-c2ccccc2)c(F)c1)C(F)(F)F (stereo not drawn) | Non-Toxic | 
28 | CCCCCCCCCCCCCCCC/C=C(/OC(=O)[C@@H](C)c1ccc2cc(OC)ccc2c1)C(F)(F)F | Non-Toxic | 
29 | CCCCCCC/C=C(/OC(=O)c1ccccc1OC(C)=O)C(F)(F)F | Non-Toxic | 
30 | CCCCCCCC/C=C\CCCCCCCCCC/C=C(/OC(=O)C(C)c1ccc(-c2ccccc2)c(F)c1)C(F)(F)F (stereo not drawn) | Non-Toxic | 
31 | CCCCCCCCCCCCCC/C=C(/OC(=O)[C@@H](C)c1ccc2cc(OC)ccc2c1)C(F)(F)F | Non-Toxic | 
32 | CCCCCCCCCCCCCCCCC/C=C(/OC(=O)C(C)c1ccc(CC(C)C)cc1)C(F)(F)F (stereo not drawn) | Non-Toxic | 
33 | CCCCCCCCCC/C=C(/OC(=O)c1ccccc1OC(C)=O)C(F)(F)F | Non-Toxic | 
34 | CCCCC/C=C\C/C=C\CCCCCC/C=C(/OC(=O)C(C)c1ccc(CC(C)C)cc1)C(F)(F)F (stereo not drawn) | Non-Toxic | 
35 | CCCCCCCCCCCCCCCCCC/C=C(/OC(=O)[C@@H](C)c1ccc2cc(OC)ccc2c1)C(F)(F)F | Non-Toxic | 
36 | CCCCCCCCCCCCCC/C=C(/OC(=O)c1ccccc1OC(C)=O)C(F)(F)F | Non-Toxic | 
37 | CCCCCCCCCCCCCCCCCCCC/C=C(/OC(=O)C(C)c1ccc(-c2ccccc2)c(F)c1)C(F)(F)F (stereo not drawn) | Non-Toxic | 
38 | CCCCCCCCCCCCCCCC/C=C(/OC(=O)C(C)c1ccc(-c2ccccc2)c(F)c1)C(F)(F)F (stereo not drawn) | Non-Toxic | 
39 | CCCCCCC/C=C(/OC(=O)[C@@H](C)c1ccc2cc(OC)ccc2c1)C(F)(F)F | Non-Toxic | 
40 | CC(C(=O)O)c1cccc(C(=O)c2ccccc2)c1 (stereo not drawn) [KETOPROFEN] | Non-Toxic | IC50 (RAW264.7 [2]): 7.07 µM; Activity (Rattus norvegicus [3]): Active; Activity (Rattus norvegicus [4]): Active; Activity (Rattus norvegicus [5]): Active; Activity (Rattus norvegicus [6]): Active; Activity (Rattus norvegicus [7]): Active; Activity (Rattus norvegicus [8]): Active; Activity (Rattus norvegicus [9]): Active; Activity [10]: 23; Activity [11]: 65%; Activity [12]: 30%; Activity [13]: 4%; UI [14]: 40
41 | CCCCCCCCCCCCCCCCCCCC/C=C(/OC(=O)C(C)c1ccc(CC(C)C)cc1)C(F)(F)F (stereo not drawn) | Non-Toxic | 
42 | C=CCCCCCCC/C=C(/OC(=O)C(C)c1ccc(-c2ccccc2)c(F)c1)C(F)(F)F (stereo not drawn) | Non-Toxic | 

Row | SMILES | Activity (RAW264.7 [1]) | other results
43 | CCCCCCCCCCCCCCCCCC/C=C(/OC(=O)C(C)c1ccc(-c2ccccc2)c(C)c1)C(F)(F)F (stereo not drawn) | Non-Toxic | 
44 | CCCCCCC/C=C(/OC(=O)C(C)c1ccc(CC(C)C)cc1)C(F)(F)F (stereo not drawn) | Non-Toxic | 
45 | CCCCCCCCCCCCCCCCCCCC/C=C(/OC(=O)[C@@H](C)c1ccc2cc(OC)ccc2c1)C(F)(F)F | Non-Toxic | 
46 | CCCCCCCC/C=C(/OC(=O)C(C)c1ccc(CC(C)C)cc1)C(F)(F)F (stereo not drawn) | Non-Toxic | 
47 | CCCCCCCCCCCCCC/C=C(/OC(=O)C(C)c1ccc(CC(C)C)cc1)C(F)(F)F (stereo not drawn) | Non-Toxic | 
48 | CCCCCCCCCCCCCC/C=C(/OC(=O)C(C)c1ccc(-c2ccccc2)c(F)c1)C(F)(F)F (stereo not drawn) | Non-Toxic | 
49 | CCCCCCCCCC/C=C(/OC(=O)C(C)c1ccc(-c2ccccc2)c(F)c1)C(F)(F)F (stereo not drawn) | Non-Toxic | 
50 | CCCCCCCCCC/C=C(/OC(=O)C(C)c1ccc(C(=O)c2ccccc2)cc1)C(F)(F)F (stereo not drawn) | Non-Toxic | 
51 | CCCCCCCC/C=C\CCCCCC/C=C(/OC(=O)C(C)c1ccc(-c2ccccc2)c(F)c1)C(F)(F)F (stereo not drawn) | Non-Toxic | 
52 | CCCCCC/C=C(/OC(=O)c1ccccc1OC(C)=O)C(F)(F)F | Non-Toxic | 
53 | CCCCCCCCCCCC/C=C(/OC(=O)C(C)c1ccc(CC(C)C)cc1)C(F)(F)F (stereo not drawn) | Non-Toxic | 
54 | CCCCCCCC/C=C\CCCCCC/C=C(/OC(=O)c1ccccc1OC(C)=O)C(F)(F)F | Non-Toxic | 
55 | CCCCCCCCCCCCCCCCCCCC/C=C(/OC(=O)c1ccccc1OC(C)=O)C(F)(F)F | Non-Toxic | 
56 | CCCCCCCCCCCCCCCCCC/C=C(/OC(=O)c1ccccc1OC(C)=O)C(F)(F)F | Non-Toxic | 
57 | CCCCCCC/C=C(/OC(=O)C(C)c1ccc(-c2ccccc2)c(F)c1)C(F)(F)F (stereo not drawn) | Non-Toxic | 
58 | CCCCCCCC/C=C\CCCCCC/C=C(/OC(=O)C(C)c1ccc(CC(C)C)cc1)C(F)(F)F (stereo not drawn) | Non-Toxic | 
59 | CCCCCCCC/C=C(/OC(=O)[C@@H](C)c1ccc2cc(OC)ccc2c1)C(F)(F)F | Non-Toxic | 
60 | CCCCCCCC/C=C\CCCCCCCCCC/C=C(/OC(=O)[C@@H](C)c1ccc2cc(OC)ccc2c1)C(F)(F)F | Non-Toxic | 
61 | CCCCCCCCCC/C=C(/OC(=O)C(C)c1ccc(CC(C)C)cc1)C(F)(F)F (stereo not drawn) | Non-Toxic | 
62 | CCCCCCCCCCCCCCCC/C=C(/OC(=O)C(C)c1ccc(CC(C)C)cc1)C(F)(F)F (stereo not drawn) | Non-Toxic | 
